Data published in US5399681A, “Method for preparing N^6 -substituted NAD, NADP or FAD” (Gesellschaft fur Biotechnologische Forschung mbH (GBF), priority 1986, dated 1995).

Tests used:
[1] = biological target: T1, yeast glucose 6-phosphate dehydrogenase (Saccharomyces cerevisiae, UniProt P11412); assay: Enzymatic reducibility with the reaction catalyzed by yeast glucose 6-phosphate dehydrogenase; assay type: biochemical; settings: for Reducibility %: 0.05M triethanolamine/HCl pH 8.0, room temperature, 5.5 mM MgCl2, 4.5 mM glucose-6-phosphate, 0.1 mM coenzyme free or polymer-bound, 30 μg glucose-6-phosphate dehydrogenase
T1 sequence (P11412 1-505): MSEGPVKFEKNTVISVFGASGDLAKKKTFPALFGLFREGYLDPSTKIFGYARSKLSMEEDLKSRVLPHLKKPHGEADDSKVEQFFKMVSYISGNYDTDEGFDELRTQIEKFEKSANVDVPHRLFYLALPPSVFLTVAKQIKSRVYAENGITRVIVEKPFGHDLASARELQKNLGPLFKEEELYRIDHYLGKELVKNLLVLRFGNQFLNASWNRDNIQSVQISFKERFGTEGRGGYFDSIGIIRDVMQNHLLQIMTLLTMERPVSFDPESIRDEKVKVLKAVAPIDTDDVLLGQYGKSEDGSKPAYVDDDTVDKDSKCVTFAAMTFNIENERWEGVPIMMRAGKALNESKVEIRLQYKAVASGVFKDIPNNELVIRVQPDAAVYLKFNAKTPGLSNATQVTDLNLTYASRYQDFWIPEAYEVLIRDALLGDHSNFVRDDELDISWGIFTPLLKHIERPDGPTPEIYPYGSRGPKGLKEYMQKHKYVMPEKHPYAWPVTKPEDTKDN
Protocol: The enzymatic reducibility of the water-soluble polymer-bound N^6 -(2-aminoethyl)-NADP derivatives was determined compared with N^6 -(2-aminoethyl)-NADP with the reaction catalyzed by yeast glucose 6-phosphate dehydrogenase under the following conditions:
0.05M triethanolamine/HCl, pH 8.0, room temperature
4.5 mM glucose-6-phosphate
0.1 mM N^6 -(2-aminoethyl)-NADP (free or polymer-bound)
30 μg glucose-6-phosphate dehydrogenase
Note: For the N^6 -(2-aminoethyl)NADP and ^6 -(2-aminoethyl)-NADPH derivatives ε267 =21000 M^-1 cm^-1 and ε340 =6220 M^-1 cm^-1 were assumed as extinction coefficients.

[2] = biological target: T2, yeast alcohol dehydrogenase (Saccharomyces cerevisiae, UniProt P00330); assay: Enzymatic reducibility with the reaction catalyzed by yeast alcohol dehydrogenase; assay type: biochemical; settings: for Reducibility %: 0.1M tris/HCl pH 8.2, room temperature, 0.1M ethanol, 7 mM semicarbazide/HCl, 0.1 mM coenzyme free or polymer-bound, 0.3 mg alcohol dehydrogenase
T2 sequence (P00330 1-348): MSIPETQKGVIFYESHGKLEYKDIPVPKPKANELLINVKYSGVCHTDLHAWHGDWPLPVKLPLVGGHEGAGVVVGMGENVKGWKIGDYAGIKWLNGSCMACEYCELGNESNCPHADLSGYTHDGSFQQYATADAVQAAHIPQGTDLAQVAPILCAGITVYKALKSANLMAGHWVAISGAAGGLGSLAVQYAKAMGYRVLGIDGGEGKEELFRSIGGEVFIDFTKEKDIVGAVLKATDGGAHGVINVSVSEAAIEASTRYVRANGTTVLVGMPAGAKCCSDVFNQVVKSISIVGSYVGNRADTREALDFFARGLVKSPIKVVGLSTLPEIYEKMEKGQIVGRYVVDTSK
Protocol: The enzymatic reducibility of the water-soluble polymer-bound N^6 -(2-aminoethyl)-NAD derivatives was determined compared with N^6 -(2-aminoethyl)-NAD with the reaction catalyzed by yeast alcohol dehydrogenase under the following conditions:
0.1M tris/HCl, pH 8.2, room temperature
0.1 mM N^6 -(2-aminoethyl)-NAD
0.3 mg alcohol dehydrogenase
Note: For N^6 -(2-aminoethyl)-NAD and N^6 -(2-aminoethyl)-NADH derivatives ε267 =21000 M^-1 cm^-1 and ε340 =6220 M^-1 cm^-1 as extiction coefficients.

Reducibility % [1] [%]	Compound	Reducibility % [2] [%]	further results
100	NCCNc1ncnc2c1ncn2[C@@H]1O[C@H](COP(=O)(O)OP(=O)([O-])OC[C@H]2O[C@@H]([n+]3cccc(C(N)=O)c3)[C@H](O)[C@@H]2O)[C@@H](O)[C@H]1OP(=O)(O)O [N^6-(2-aminoethyl)-NADP]		Enzymatic reduction to N^6 -(2-aminoethyl)-NADPH (in words) ([1]; catalyzed by beer yeast glucose-6-phosphate dehydrogenase): Quantitative reduction
95	PEG (Mr =4000)-N^6 -(2-aminoethyl)-NADP		
95	PEG (Mr =20000)-N^6 -(2-aminoethyl)-NADP		
63	poly-(divinyl ether/maleic acid)-N^6 -(2-aminoethyl)-NADP		
50	poly-(ethylene/maleic acid)-N^6 -(2-aminoethyl)-NADP		
60	poly-(methylvinyl ether/maleic acid)-N^6 -(2-aminoethyl)-NADP		

More lines, now with the values behind:

Compound	Reducibility % [1] [%]	Reducibility % [2] [%]	further results
NCCNc1ncnc2c1ncn2[C@@H]1O[C@H](COP(=O)(O)OP(=O)([O-])OC[C@H]2O[C@@H]([n+]3cccc(C(N)=O)c3)[C@H](O)[C@@H]2O)[C@@H](O)[C@H]1O [N^6-(2-aminoethyl)-NAD]		100	Enzymatic reduction to N^6 -(2-aminoethyl)-NADH (in words) ([2]; catalyzed by beer yeast alcohol dehydrogenase): Quantitative reduction
dextran-N^6 -(2-aminoethyl)-NAD		90	
poly-(divinyl ether/maleic acid)-N^6 -(2-aminoethyl)-NAD		60	
poly-(ethylene/maleic acid)-N^6 -(2-aminoethyl)-NAD		60	
poly-(methylvinyl ether/maleic acid)-N^6 -(2-aminoethyl)-NAD		70	
polyethylene glycol N^6 -(2-aminoethyl)-NAD		90	
polyvinylpyrrolidone N^6 -(2-aminoethyl)-NAD		90	
